Laboratory results published in PMC7690782, “Liver-Targeting Class I Selective Histone Deacetylase Inhibitors Potently Suppress Hepatocellular Tumor Growth as Standalone Agents” (Cancers, 2020).
pIC50: −log10 of the molar value.

Experiments:
Assay in all cases: Fluor de Lys fluorescence deacetylase inhibition assay
Format in all cases: biochemical
Conditions in all cases: read-out: 1 (IC50)
[1] = target: T1, HDAC2 (Homo sapiens, UniProt Q92769)
T1 construct: enzyme of BPS Bioscience contract assay
Source text: Fluor de Lys fluorescence deacetylase inhibition assay on HDAC2

[2] = target: T2, HDAC4 (Homo sapiens, UniProt P56524)
T2 construct: enzyme of BPS Bioscience contract assay
Source text: Fluor de Lys fluorescence deacetylase inhibition assay on HDAC4

[3] = target: T3, HDAC8 (Homo sapiens, UniProt Q9BY41)
T3 construct: enzyme of BPS Bioscience contract assay
T3 sequence (Q9BY41 1-377): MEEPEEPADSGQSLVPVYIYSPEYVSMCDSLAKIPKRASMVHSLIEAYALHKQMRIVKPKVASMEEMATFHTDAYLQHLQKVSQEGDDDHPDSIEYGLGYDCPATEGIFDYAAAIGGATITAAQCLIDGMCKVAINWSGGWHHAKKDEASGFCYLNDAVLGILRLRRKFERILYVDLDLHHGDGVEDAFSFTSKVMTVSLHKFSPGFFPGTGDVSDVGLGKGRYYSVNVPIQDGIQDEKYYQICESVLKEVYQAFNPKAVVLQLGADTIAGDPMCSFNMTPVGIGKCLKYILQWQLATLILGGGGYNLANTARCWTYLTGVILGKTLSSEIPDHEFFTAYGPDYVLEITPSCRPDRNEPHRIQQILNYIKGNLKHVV
Source text: Fluor de Lys fluorescence deacetylase inhibition assay on HDAC8

[4] = target: T4, HDAC9 (Homo sapiens, UniProt Q9UKV0)
T4 construct: enzyme of BPS Bioscience contract assay
Source text: Fluor de Lys fluorescence deacetylase inhibition assay on HDAC9

[5] = target: T5, HDAC1 (Homo sapiens, UniProt Q13547)
T5 construct: enzyme of BPS Bioscience contract assay
Source text: Fluor de Lys fluorescence deacetylase inhibition assay on HDAC1

[6] = target: T6, HDAC6 (Homo sapiens, UniProt Q9UBN7)
T6 construct: enzyme of BPS Bioscience contract assay
T6 sequence (Q9UBN7 1-1215): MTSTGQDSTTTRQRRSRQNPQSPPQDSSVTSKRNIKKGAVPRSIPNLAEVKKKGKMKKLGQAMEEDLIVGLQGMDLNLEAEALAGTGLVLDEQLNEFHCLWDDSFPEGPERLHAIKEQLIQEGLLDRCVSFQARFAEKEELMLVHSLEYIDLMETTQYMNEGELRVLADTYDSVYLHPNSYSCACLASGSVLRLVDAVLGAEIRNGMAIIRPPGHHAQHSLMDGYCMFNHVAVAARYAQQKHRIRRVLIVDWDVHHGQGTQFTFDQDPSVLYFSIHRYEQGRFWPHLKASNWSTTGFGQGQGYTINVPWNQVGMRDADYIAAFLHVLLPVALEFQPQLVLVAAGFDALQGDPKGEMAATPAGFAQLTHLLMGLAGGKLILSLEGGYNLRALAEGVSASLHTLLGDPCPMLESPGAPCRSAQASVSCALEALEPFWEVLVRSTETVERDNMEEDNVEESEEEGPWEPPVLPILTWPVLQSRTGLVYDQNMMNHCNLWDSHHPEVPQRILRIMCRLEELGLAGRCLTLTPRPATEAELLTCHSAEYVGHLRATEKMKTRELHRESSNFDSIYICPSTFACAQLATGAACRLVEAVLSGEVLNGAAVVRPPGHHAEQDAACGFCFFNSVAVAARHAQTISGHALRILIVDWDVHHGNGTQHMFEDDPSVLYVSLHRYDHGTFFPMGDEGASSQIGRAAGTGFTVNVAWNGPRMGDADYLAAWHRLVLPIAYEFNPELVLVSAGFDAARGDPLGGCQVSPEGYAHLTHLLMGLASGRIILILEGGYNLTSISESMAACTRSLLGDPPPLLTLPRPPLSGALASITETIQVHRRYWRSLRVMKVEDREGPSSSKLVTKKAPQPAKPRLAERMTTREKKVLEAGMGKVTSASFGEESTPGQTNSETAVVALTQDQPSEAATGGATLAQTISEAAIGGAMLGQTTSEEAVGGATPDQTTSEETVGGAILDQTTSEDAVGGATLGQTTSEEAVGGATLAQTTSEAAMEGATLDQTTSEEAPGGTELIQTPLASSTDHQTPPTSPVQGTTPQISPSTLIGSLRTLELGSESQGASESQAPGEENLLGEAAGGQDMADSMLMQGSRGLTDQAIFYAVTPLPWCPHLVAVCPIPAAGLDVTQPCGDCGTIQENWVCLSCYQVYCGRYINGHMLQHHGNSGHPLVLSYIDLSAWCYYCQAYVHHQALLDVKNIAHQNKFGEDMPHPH
Source text: Fluor de Lys fluorescence deacetylase inhibition assay on HDAC6

[7] = target: T7, HDAC11 (Homo sapiens, UniProt Q96DB2)
T7 construct: enzyme of BPS Bioscience contract assay
T7 sequence (Q96DB2 1-347): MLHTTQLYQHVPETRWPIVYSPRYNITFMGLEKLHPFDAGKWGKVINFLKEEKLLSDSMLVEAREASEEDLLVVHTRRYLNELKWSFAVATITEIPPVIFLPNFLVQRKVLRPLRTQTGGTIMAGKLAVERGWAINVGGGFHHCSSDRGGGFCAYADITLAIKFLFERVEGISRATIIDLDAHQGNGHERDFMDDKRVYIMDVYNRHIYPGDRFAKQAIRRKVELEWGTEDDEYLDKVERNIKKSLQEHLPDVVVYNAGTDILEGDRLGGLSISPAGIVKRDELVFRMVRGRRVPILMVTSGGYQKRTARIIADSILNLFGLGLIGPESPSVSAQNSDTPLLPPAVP
Source text: Fluor de Lys fluorescence deacetylase inhibition assay on HDAC11

[8] = target: T8, HDAC5 (Homo sapiens, UniProt Q9UQL6)
T8 construct: enzyme of BPS Bioscience contract assay
Source text: Fluor de Lys fluorescence deacetylase inhibition assay on HDAC5

[9] = target: T9, HDAC10 (Homo sapiens, UniProt Q969S8)
T9 construct: enzyme of BPS Bioscience contract assay
T9 sequence (Q969S8 1-669): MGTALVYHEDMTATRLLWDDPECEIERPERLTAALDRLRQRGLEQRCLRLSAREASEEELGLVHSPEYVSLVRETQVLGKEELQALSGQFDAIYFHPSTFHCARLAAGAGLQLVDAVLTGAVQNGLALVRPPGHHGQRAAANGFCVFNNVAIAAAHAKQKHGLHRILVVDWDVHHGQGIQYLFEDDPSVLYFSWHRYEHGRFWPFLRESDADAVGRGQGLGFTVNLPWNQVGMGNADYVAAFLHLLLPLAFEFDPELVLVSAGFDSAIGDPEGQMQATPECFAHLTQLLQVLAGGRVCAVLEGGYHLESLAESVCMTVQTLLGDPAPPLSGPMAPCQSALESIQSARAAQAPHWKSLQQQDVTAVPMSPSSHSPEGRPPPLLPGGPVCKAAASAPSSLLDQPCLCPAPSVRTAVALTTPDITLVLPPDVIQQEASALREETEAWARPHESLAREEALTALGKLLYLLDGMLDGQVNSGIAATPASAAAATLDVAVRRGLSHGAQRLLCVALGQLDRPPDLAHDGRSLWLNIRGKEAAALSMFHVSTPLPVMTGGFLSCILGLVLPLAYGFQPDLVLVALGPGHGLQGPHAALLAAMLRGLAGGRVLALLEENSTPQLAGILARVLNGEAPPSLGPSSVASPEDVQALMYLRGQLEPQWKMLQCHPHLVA
Source text: Fluor de Lys fluorescence deacetylase inhibition assay on HDAC10

[10] = target: T10, HDAC7 (Homo sapiens, UniProt Q8WUI4)
T10 construct: enzyme of BPS Bioscience contract assay
T10 sequence (Q8WUI4 518-952 limits assumed): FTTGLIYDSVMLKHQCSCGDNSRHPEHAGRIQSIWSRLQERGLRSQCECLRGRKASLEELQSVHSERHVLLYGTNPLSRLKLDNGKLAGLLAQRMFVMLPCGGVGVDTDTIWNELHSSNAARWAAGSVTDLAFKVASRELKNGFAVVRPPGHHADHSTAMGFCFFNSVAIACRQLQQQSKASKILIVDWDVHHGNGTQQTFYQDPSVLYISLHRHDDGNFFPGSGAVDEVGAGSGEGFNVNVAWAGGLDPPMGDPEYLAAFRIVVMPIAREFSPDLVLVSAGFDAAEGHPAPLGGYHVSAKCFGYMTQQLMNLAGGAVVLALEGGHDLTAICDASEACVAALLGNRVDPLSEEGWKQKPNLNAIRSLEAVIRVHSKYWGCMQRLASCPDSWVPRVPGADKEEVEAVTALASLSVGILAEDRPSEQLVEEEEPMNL
Source text: Fluor de Lys fluorescence deacetylase inhibition assay on HDAC7

T2 sequence (P56524 627-1084 limits assumed): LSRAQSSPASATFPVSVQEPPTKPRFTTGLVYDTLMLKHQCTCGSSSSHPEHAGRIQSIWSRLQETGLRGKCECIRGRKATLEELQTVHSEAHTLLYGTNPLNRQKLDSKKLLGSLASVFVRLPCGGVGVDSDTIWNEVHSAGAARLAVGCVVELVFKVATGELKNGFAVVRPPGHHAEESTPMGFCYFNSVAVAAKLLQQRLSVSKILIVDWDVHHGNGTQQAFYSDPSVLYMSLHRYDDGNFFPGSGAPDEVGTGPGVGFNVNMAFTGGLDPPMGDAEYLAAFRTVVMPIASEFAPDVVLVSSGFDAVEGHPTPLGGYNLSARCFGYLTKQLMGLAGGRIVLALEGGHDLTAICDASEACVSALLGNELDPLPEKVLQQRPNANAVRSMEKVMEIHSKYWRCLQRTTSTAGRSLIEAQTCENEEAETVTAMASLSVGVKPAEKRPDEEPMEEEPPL
T1 sequence (Q92769 whole entry): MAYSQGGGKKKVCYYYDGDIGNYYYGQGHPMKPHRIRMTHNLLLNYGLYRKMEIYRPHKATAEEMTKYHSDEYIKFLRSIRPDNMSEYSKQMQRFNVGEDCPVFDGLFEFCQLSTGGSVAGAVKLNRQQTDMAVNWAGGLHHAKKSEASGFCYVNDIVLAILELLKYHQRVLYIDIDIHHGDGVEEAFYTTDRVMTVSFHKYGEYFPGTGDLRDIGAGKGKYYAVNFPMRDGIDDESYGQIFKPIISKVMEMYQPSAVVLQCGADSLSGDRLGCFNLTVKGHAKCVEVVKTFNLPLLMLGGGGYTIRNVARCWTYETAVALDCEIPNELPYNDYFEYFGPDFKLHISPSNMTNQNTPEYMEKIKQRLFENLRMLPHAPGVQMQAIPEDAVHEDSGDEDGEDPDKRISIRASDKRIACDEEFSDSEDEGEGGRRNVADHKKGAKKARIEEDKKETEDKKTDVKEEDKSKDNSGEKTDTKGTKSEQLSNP
T5 sequence (Q13547 whole entry): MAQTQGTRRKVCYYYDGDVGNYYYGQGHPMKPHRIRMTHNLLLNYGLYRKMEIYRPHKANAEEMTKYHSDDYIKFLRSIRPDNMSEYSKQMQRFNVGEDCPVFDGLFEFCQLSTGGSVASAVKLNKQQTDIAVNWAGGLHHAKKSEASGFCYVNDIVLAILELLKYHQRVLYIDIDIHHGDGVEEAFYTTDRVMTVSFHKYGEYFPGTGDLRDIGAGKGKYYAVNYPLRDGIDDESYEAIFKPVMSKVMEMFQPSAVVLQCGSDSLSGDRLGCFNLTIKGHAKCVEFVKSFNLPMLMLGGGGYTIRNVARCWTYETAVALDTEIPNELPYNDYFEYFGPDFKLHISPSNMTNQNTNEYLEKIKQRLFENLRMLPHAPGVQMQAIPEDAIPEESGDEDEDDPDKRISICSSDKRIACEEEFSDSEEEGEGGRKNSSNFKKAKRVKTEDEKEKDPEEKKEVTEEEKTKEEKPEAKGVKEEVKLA
T8 sequence (Q9UQL6 whole entry): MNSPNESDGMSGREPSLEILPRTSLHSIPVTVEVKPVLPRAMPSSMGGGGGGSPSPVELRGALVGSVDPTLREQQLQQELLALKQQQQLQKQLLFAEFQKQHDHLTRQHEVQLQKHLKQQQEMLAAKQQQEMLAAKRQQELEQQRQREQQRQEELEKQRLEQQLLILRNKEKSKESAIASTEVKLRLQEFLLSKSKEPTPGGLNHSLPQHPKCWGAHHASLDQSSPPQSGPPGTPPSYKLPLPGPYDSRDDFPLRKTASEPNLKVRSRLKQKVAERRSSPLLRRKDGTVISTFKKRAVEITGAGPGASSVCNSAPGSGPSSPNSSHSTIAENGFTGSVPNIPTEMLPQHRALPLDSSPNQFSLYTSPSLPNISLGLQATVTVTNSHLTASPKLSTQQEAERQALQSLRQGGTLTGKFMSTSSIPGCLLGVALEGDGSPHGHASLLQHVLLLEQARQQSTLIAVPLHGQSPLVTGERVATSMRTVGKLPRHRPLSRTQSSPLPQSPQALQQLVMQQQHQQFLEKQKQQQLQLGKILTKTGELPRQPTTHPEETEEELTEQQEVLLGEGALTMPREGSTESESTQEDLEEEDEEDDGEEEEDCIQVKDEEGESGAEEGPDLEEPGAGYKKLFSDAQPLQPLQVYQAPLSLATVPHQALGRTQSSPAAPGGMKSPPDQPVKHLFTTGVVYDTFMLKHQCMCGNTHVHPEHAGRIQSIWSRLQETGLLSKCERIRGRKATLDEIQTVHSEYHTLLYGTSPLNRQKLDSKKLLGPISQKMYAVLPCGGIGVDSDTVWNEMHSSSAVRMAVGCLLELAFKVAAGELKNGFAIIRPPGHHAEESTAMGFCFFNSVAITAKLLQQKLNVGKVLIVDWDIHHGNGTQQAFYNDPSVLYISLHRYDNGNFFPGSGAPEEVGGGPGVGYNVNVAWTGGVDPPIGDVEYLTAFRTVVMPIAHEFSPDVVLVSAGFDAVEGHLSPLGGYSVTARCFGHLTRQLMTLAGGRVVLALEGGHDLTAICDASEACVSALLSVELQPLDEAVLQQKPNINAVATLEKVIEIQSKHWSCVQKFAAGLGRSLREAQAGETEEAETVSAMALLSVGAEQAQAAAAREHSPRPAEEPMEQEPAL
T4 sequence (Q9UKV0 whole entry): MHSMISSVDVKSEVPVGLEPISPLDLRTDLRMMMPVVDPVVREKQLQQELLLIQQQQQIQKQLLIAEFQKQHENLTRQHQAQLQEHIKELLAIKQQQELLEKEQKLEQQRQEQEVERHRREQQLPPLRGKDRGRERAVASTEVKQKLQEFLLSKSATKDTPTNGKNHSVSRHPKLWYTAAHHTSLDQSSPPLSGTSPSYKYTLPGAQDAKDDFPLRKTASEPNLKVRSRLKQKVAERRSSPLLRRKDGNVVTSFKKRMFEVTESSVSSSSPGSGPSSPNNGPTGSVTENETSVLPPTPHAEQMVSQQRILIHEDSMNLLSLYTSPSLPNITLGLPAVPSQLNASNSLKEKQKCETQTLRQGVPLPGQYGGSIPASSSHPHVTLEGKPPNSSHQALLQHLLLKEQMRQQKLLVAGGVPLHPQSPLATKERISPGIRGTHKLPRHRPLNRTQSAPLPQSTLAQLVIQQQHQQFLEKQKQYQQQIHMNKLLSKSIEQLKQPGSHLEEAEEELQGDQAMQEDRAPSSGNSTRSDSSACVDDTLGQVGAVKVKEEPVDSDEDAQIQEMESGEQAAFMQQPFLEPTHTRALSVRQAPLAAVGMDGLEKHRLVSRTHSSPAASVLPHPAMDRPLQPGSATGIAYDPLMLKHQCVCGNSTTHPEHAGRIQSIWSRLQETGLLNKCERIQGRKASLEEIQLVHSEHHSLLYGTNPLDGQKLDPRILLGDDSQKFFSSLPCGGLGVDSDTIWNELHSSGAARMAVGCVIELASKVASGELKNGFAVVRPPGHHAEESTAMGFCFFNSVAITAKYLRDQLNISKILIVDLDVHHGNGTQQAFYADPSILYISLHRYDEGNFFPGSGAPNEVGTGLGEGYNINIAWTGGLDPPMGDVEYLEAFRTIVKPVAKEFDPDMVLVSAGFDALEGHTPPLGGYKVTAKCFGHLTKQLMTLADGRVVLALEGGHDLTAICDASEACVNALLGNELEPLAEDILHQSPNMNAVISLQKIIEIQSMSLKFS

pIC50 [1]: 8.09
pIC50 [2]: 5.72
pIC50 [3]: 6.08
pIC50 [4]: 5.16
pIC50 [5]: 8.57
pIC50 [6]: 8.77
pIC50 [7]: 5.13
pIC50 [8]: 5.75
pIC50 [9]: 8.35
pIC50 [10]: 5.58
Compound: CC[C@H]1OC(=O)[C@H](C)[C@@H](O[C@H]2C[C@@](C)(OC)[C@@H](O)[C@H](C)O2)[C@H](C)[C@@H](O[C@@H]2O[C@H](C)C[C@H](N(C)Cc3ccc(-c4cn(CCCCCCC(=O)NO)nn4)cc3)[C@H]2O)[C@](C)(O)C[C@@H](C)CN(C)[C@H](C)[C@@H](O)[C@]1(C)O [compound 1]
